{
  "source": "patent US7662832B2",
  "about": "“Pyrrolo[2,3-c]pyridine derivatives and processes for the preparation thereof” (priority 2004, dated 2010)",
  "note": "Structures can show the parent of a compound that is named as a salt.",
  "data": [
    {"molecular_target": "Proton Pump (H^+/K^+-ATPase) (Sus scrofa, UniProt P19156)", "sequence (P19156 2-1034 limits assumed)": "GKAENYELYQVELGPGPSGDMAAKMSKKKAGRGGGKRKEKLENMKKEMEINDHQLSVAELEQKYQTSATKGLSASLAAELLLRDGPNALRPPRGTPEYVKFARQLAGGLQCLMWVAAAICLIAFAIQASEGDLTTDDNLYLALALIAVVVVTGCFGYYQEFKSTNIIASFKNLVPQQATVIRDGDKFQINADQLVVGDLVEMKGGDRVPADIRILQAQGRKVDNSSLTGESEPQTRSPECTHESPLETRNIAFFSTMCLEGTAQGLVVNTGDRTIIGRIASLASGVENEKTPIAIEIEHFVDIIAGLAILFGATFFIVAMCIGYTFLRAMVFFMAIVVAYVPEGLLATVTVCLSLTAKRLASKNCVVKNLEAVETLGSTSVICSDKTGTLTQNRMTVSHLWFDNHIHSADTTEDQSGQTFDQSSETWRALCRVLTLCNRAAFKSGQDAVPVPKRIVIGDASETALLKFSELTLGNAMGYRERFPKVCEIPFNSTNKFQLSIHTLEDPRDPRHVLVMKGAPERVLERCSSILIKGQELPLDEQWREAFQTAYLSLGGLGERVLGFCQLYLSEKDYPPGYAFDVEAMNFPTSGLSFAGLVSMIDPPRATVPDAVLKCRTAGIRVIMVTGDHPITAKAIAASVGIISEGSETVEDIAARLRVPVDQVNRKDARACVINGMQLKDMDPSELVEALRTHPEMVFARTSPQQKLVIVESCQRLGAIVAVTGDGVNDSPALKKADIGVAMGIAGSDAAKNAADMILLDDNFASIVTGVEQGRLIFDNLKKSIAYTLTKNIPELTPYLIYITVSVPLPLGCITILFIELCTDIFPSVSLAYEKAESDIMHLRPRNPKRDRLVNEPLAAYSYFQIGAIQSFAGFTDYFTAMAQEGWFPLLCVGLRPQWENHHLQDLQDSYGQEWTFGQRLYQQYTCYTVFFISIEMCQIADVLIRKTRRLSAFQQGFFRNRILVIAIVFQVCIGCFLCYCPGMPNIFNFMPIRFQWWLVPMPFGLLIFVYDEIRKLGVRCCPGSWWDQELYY", "sequence (P18434 whole entry partner)": "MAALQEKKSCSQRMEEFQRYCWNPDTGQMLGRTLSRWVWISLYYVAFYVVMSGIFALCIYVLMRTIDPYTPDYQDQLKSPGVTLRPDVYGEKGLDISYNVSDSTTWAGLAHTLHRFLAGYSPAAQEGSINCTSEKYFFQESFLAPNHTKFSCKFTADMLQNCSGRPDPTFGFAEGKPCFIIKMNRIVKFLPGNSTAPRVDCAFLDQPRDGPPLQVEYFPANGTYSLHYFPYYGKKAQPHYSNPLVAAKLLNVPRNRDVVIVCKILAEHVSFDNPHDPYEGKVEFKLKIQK", "assay": "Inhibitory effects on proton pump (H^+/K^+-ATPase) activity", "assay_type": "biochemical", "settings": "hog gastric vesicles; K^+ stimulated H^+/K^+-ATPase activity; 30 minutes at 37° C.", "units": {"IC50": "nM"}, "values": [
      {"molecule": "CCN1CCN(C(=O)c2cc3c(C)c(C)n(CC4CC4)c3c(N3CCc4ccccc4C3)n2)CC1", "note": "[Example 818, [1-cyclopropylmethyl-7-(3,4-dihydro-1H-isoquinolin-2-yl)-2,3-dimethyl-1H-pyrrolo[2,3-c]pyridin-5-yl]-(4-ethylpiperazin-1-yl)-methanone hydrochloride]", "IC50": 34},
      {"molecule": "CCN1CCN(C(=O)c2cc3c(C)c(C)n(Cc4cccc(OC)c4)c3c(N3CCc4ccccc4C3)n2)CC1", "note": "[Example 824, [7-(3,4-dihydro-1H-isoquinolin-2-yl)-1-(3-methoxybenzyl)-2,3-dimethyl-1H-pyrrolo[2,3-c]pyridin-5-yl]-(4-ethylpiperazin-1-yl)-methanone hydrochloride]", "IC50": 33},
      {"molecule": "Cc1c(C)n(Cc2ccccc2)c2c(NCc3ccc(F)cc3)nc(C(=O)N3CCN(C)CC3)cc12", "note": "[Example 906, [1-benzyl-7-(4-fluorobenzylamino)-2,3-dimethyl-1H-pyrrolo[2,3-c]pyridin-5-yl]-(4-methylpiperazin-1-yl)-methanone hydrochloride]", "IC50": 31},
      {"molecule": "C=CCn1c(C)c(C)c2cc(C(=O)NCCO)nc(N3CCc4ccccc4C3)c21", "note": "[Example 837, 1-allyl-7-(3,4-dihydro-1H-isoquinolin-2-yl)-2,3-dimethyl-N-(2-hydroxyethyl)-1H-pyrrolo[2,3-c]pyridin-5-carboxamide hydrochloride]", "IC50": 29},
      {"molecule": "Cc1c(C)n(Cc2ccccc2F)c2c(-c3ccc4ccccc4c3)nccc12", "note": "[Example 409, 1-(2-fluorobenzyl)-2,3-dimethyl-7-(naphthalen-2-yl)-1H-pyrrolo[2,3-c]pyridine hydrochloride]", "IC50": 93},
      {"molecule": "COCCn1c(C)c(C)c2ccnc(CN(C)c3ccc(F)cc3)c21", "note": "[Example 120, N-(4-fluorophenyl)-N-[1-(2-methoxyethyl)-2,3-dimethyl-1H-pyrrolo[2,3-c]pyridin-7-ylmethyl]-methylamine hydrochloride]", "IC50": 444},
      {"molecule": "C=Cc1ccc(-c2nccc3c(C)c(C)[nH]c23)cc1", "note": "[Example 242, 2,3-dimethyl-7-(4-vinylphenyl)-1H-pyrrolo[2,3-c]pyridine]", "IC50": 100},
      {"molecule": "CSc1ccc(-c2nccc3c(C)c(C)n(Cc4ccc(C)cc4)c23)cc1", "note": "[Example 267, 2,3-dimethyl-1-(4-methylbenzyl)-7-(4-methylsulfanylphenyl)-1H-pyrrolo[2,3-c]pyridine hydrochloride]", "IC50": 110},
      {"molecule": "Cc1c(C)n(Cc2cccc(F)c2)c2c(N3CCc4ccccc4C3)nc(CO)cc12", "note": "[Example 851, 7-(3,4-dihydro-1H-isoquinolin-2-yl)-1-(3-fluorobenzyl)-2,3-dimethyl-1H-pyrrolo[2,3-c]pyridin-5-yl]-methanol hydrochloride]", "IC50": 32},
      {"molecule": "C=CCn1c(C)c(C)c2ccnc(N3CCc4ccccc4C3)c21", "note": "[Example 487, 1-allyl-7-(1,2,3,4-tetrahydroisoquinolin-2-yl)-2,3-dimethyl-1H-pyrrolo[2,3-c]pyridine methanesulfonate]", "IC50": 4},
      {"molecule": "COc1ccc(Cn2c(C)c(C)c3ccnc(N4CCc5cc(F)ccc5C4C)c32)cc1", "note": "(stereo not drawn) [Example 566, 6-fluoro-2-[1-(4-methoxybenzyl)-2,3-dimethyl-1H-pyrrolo[2,3-c]pyridin-7-yl]-1-methyl-1,2,3,4-tetrahydroisoquinoline hydrochloride]", "IC50": 300},
      {"molecule": "C=CCCn1c(C)c(C)c2cc(C#N)nc(N3CCc4ccccc4C3)c21", "note": "[Example 683, 1-(but-3-enyl)-7-(3,4-dihydro-1H-isoquinolin-2-yl)-2,3-dimethyl-1H-pyrrolo[2,3-c]pyridin-5-carbonitrile]", "IC50": 1560},
      {"molecule": "CCn1c(C)c(C)c2cc(C(=O)N3CCN(c4ccccc4)CC3)nc(N3CCc4ccccc4C3)c21", "note": "[Example 810, [7-(3,4-dihydro-1H-isoquinolin-2-yl)-1-ethyl-2,3-dimethyl-1H-pyrrolo[2,3-c]pyridin-5-yl]-(4-phenylpiperazin-1-yl)-methanone hydrochloride]", "IC50": 436},
      {"molecule": "Cc1[nH]c2c(N3CCc4ccccc4C3)nc(C(=O)N3CCOCC3)cc2c1C", "note": "[Example 776, [7-(3,4-dihydro-1H-isoquinolin-2-yl)-2,3-dimethyl-1H-pyrrolo[2,3-c]pyridin-5-yl]-(morpholin-4-yl)-methanone]", "IC50": 85},
      {"molecule": "CCCn1c(C)c(C)c2ccnc(NCc3ccc(C)cc3)c21", "note": "[Example 205, 2,3-dimethyl-7-(4-methylbenzylamino)-1-propyl-1H-pyrrolo[2,3-c]pyridine hydrochloride]", "IC50": 330},
      {"molecule": "Cc1c(C)n(Cc2cccc(F)c2)c2c(N3CCc4ccc(F)cc4C3C)nccc12", "note": "(stereo not drawn) [Example 542, 7-fluoro-2-[1-(3-fluorobenzyl)-2,3-dimethyl-1H-pyrrolo[2,3-c]pyridin-7-yl]-1-methyl-1,2,3,4-tetrahydroisoquinoline hydrochloride]", "IC50": 150},
      {"molecule": "C=CCn1c(C)c(C)c2ccnc(N3CCc4ccccc4C3)c21", "note": "[Example 491, 1-allyl-7-(1,2,3,4-tetrahydroisoquinolin-2-yl)-2,3-dimethyl-1H-pyrrolo[2,3-c]pyridine maleate]", "IC50": 2},
      {"molecule": "COCCn1c(C)c(C)c2ccnc(-c3ccc(SC)cc3)c21", "note": "[Example 264, 1-(2-methoxyethyl)-2,3-dimethyl-7-(4-methylsulfanylphenyl)-1H-pyrrolo[2,3-c]pyridine hydrochloride]", "IC50": 490},
      {"molecule": "C#CCn1c(C)c(C)c2cc(Cl)nc(N3CCc4ccccc4C3)c21", "note": "[Example 659, 2-[5-chloro-2,3-dimethyl-1-(prop-2-ynyl)-1H-pyrrolo[2,3-c]pyridin-7-yl]-1,2,3,4-tetrahydroisoquinoline]", "IC50": 439},
      {"molecule": "CCC1c2ccccc2CCN1c1nccc2c(C)c(C)n(Cc3csc(C)n3)c12", "note": "(stereo not drawn) [Example 586, 1-ethyl-2-[2,3-dimethyl-1-(2-methylthiazol-4-ylmethyl)-1H-pyrrolo[2,3-c]pyridin-7-yl]-1,2,3,4-tetrahydroisoquinoline hydrochloride]", "IC50": 330},
      {"molecule": "COc1cccc(Cn2c(C)c(C)c3ccnc(N4CCc5ccccc5C4)c32)c1", "note": "[Example 510, 1-(3-methoxybenzyl)-7-(1,2,3,4-tetrahydroisoquinolin-2-yl)-2,3-dimethyl-1H-pyrrolo[2,3-c]pyridine hydrochloride]", "IC50": 56},
      {"molecule": "Cc1ccc(Cn2c(C)c(C)c3ccnc(COc4ccc(F)cc4)c32)cc1", "note": "[Example 5, 7-(4-fluorophenoxymethyl)-2,3-dimethyl-1-(4-methylbenzyl)-1H-pyrrolo[2,3-c]pyridine hydrochloride]", "IC50": 450},
      {"molecule": "C=CCn1c(C)c(C)c2ccnc(N3CCc4ccccc4C3)c21", "note": "[Example 493, 1-allyl-7-(1,2,3,4-tetrahydroisoquinolin-2-yl)-2,3-dimethyl-1H-pyrrolo[2,3-c]pyridine benzenesulfonate]", "IC50": 4},
      {"molecule": "Cc1c(C)n(Cc2ccccc2)c2c(NCc3ccc(F)cc3)nccc12", "note": "[Example 214, 1-benzyl-7-(4-fluorobenzylamino)-2,3-dimethyl-1H-pyrrolo[2,3-c]pyridine hydrochloride]", "IC50": 290},
      {"molecule": "Cc1c(C)n(Cc2ccccc2)c2c(N3CCc4ccccc4C3)nc(C(=O)N3CCOCC3)cc12", "note": "[Example 769, [1-benzyl-7-(3,4-dihydro-1H-isoquinolin-2-yl)-2,3-dimethyl-1H-pyrrolo[2,3-c]pyridin-5-yl]-(morpholin-4-yl)-methanone hydrochloride]", "IC50": 103},
      {"molecule": "Cc1ccccc1CNc1nccc2c(C)c(C)n(Cc3ccccc3)c12", "note": "[Example 216, 1-benzyl-2,3-dimethyl-7-(2-methylbenzylamino)-1H-pyrrolo[2,3-c]pyridine hydrochloride]", "IC50": 260},
      {"molecule": "[1-allyl-7-(3,4-dihydro-1H-isoquinolin-2-yl)-2,3-dimethyl-1H-pyrrolo[2,3-c]pyridin-5-yl]-methylamine hydrochloride [Example 887]", "IC50": 9},
      {"molecule": "CCn1c(C)c(C)c2cc(N)nc(N3CCc4ccccc4C3)c21", "note": "[Example 849, 7-(3,4-dihydro-1H-isoquinolin-2-yl)-1-ethyl-2,3-dimethyl-1H-pyrrolo[2,3-c]pyridin-5-amine hydrochloride]", "IC50": 129},
      {"molecule": "CSc1ccc(-c2nccc3c(C)c(C)n(Cc4ccccc4)c23)cc1", "note": "[Example 268, 1-benzyl-2,3-dimethyl-7-(4-methylsulfanylphenyl)-1H-pyrrolo[2,3-c]pyridine hydrochloride]", "IC50": 130},
      {"molecule": "Cc1c(C)n(Cc2cccc(F)c2)c2c(N3CCc4cc(F)ccc4C3C)nccc12", "note": "(stereo not drawn) [Example 565, 6-fluoro-2-[1-(3-fluorobenzyl)-2,3-dimethyl-1H-pyrrolo[2,3-c]pyridin-7-yl]-1-methyl-1,2,3,4-tetrahydroisoquinoline hydrochloride]", "IC50": 330},
      {"molecule": "CSc1ccc(-c2nccc3c(C)c(C)[nH]c23)cc1", "note": "[Example 262, 2,3-dimethyl-7-(4-methylsulfanylphenyl)-1H-pyrrolo[2,3-c]pyridine]", "IC50": 220},
      {"molecule": "Cc1c(C)n(CC2CC2)c2c(N3CCc4ccccc4C3)nc(C(=O)N3CCNCC3)cc12", "note": "[Example 816, [1-cyclopropylmethyl-7-(3,4-dihydro-1H-isoquinolin-2-yl)-2,3-dimethyl-1H-pyrrolo[2,3-c]pyridin-5-yl]-(piperazin-1-yl)-methanone hydrochloride]", "IC50": 9},
      {"molecule": "CSc1ccc(-c2nccc3c(C)c(C)n(Cc4cccc(F)c4)c23)cc1", "note": "[Example 272, 2,3-dimethyl-1-(3-fluorobenzyl)-7-(4-methylsulfanylphenyl)-1H-pyrrolo[2,3-c]pyridine hydrochloride]", "IC50": 220},
      {"molecule": "CCCn1c(C)c(C)c2ccnc(-c3ccc4ccccc4c3)c21", "note": "[Example 407, 2,3-dimethyl-7-(naphthalen-2-yl)-1-propyl-1H-pyrrolo[2,3-c]pyridine hydrochloride]", "IC50": 113},
      {"molecule": "COc1cccc(Cn2c(C)c(C)c3ccnc(COc4ccc(F)cc4)c32)c1", "note": "[Example 4, 7-(4-fluorophenoxymethyl)-1-(3-methoxybenzyl)-2,3-dimethyl-1H-pyrrolo[2,3-c]pyridine hydrochloride]", "IC50": 150},
      {"molecule": "C=Cc1ccc(-c2nccc3c(C)c(C)n(CCOC)c23)cc1", "note": "[Example 247, 1-(2-methoxyethyl)-2,3-dimethyl-7-(4-vinylphenyl)-1H-pyrrolo[2,3-c]pyridine hydrochloride]", "IC50": 90}
    ]}
  ]
}
